test system: production of CD69 by B lymphocytes in human whole blood activated by crosslinking surface IgM; assay: CD69 human whole blood assay (Example 903), FACS; assay type: cell-based; details: B lymphocytes activated with goat F(ab')2 anti-human IgM, read-out: CD69 Hu Blood FACS IC50
Text: There is good evidence that B-cells play a key role in the pathogenesis of autoimmune and/or inflammatory disease. Protein-based therapeutics that deplete B cells such as Rituxan are effective against autoantibody-driven inflammatory diseases such as rheumatoid arthritis (Rastetter et al. (2004) Annu Rev Med 55:477). CD69 is the early activation marker in leukocytes including T cells, thymocytes, B cells, NK cells, neutrophils, and eosinophils. The CD69 human whole blood assay (Example 903) determines the ability of compounds to inhibit the production of CD69 by B lymphocytes in human whole blood activated by crosslinking surface IgM with goat F(ab′)2 anti-human IgM.

Row | SMILES | IC50 [nM]
1 | CC(Nc1ncnc2[nH]cnc12)c1nc2ccc(F)cc2n1-c1cccnc1 (stereo not shown) [Example 176, [1-(6-Fluoro-1-pyridin-3-yl-1H-benzoimidazol-2-yl)-ethyl]-(9H-purin-6-yl)-amine] | 62.9
2 | CC(Nc1ncnc2[nH]cnc12)c1nc2ccc(F)cc2n1-c1ccc(C#N)cc1 (stereo not shown) [Example 248, 4-{6-Fluoro-2-[1-(9H-purin-6-ylamino)-ethyl]-benzoimidazol-1-yl}-benzonitrile] | 78.9
3 | CC(Nc1ncnc2[nH]cnc12)c1nc2ccc(F)cc2n1-c1ccc(F)cc1 (stereo not shown) [Example 186, {1-[6-Fluoro-1-(4-fluoro-phenyl)-1H-benzoimidazol-2-yl]-ethyl}-(9H-purin-6-yl)-amine] | 134
4 | OCC(Nc1ncnc2nc[nH]c12)c1nc2ccc(F)cc2n1-c1ccccc1 (stereo not shown) [Example 172, 2-(6-Fluoro-1-phenyl-1H-benzoimidazol-2-yl)-2-(7H-purin-6-ylamino)-ethanol] | 175

same assay, conditions: Homo sapiens, Lymphocyte, B lymphocytes activated with goat F(ab')2 anti-human IgM, read-out: CD69 Hu Blood FACS IC50

Row | SMILES | IC50 [nM]
5 | CCC(Nc1ncnc2[nH]cnc12)c1nc2ccc(F)cc2n1-c1cccnc1 (stereo not shown) [Example 205, [1-(6-Fluoro-1-pyridin-3-yl-1H-benzoimidazol-2-yl)-propyl]-(9H-purin-6-yl)-amine] | 42.9
6 | C[C@H](Nc1ncnc2[nH]cnc12)c1nc2ccc(F)c(C(=O)N3CCOCC3)c2n1-c1ccccc1 [Example 273, {5-Fluoro-3-phenyl-2-[(S)-1-(9H-purin-6-ylamino)-ethyl]-3H-benzoimidazol-4-yl}-morpholin-4-yl-methanone] | 26.8
7 | C[C@H](Nc1ncnc2[nH]cnc12)c1nc2ccc(F)cc2n1[C@H]1CCCN(CCO)C1 [Example 278, 2-((S)-3-{6-Fluoro-2-[(S)-1-(9H-purin-6-ylamino)-ethyl]-benzoimidazol-1-yl}-piperidin-1-yl)-ethanol] | 16.6
8 | C[C@H](Nc1ncnc2[nH]cnc12)c1nc2ccc(F)cc2n1-c1ccnn1C [Example 417, N-[(1S)-1-[6-fluoro-1-(2-methylpyrazol-3-yl)benzimidazol-2-yl]ethyl]-9H-purin-6-amine] | 140
9 | Cc1nccc(N[C@@H](C)c2nc3ccc(F)cc3n2-c2ccccc2)c1C#N [Example 340, 4-[(S)-1-(6-Fluoro-1-phenyl-1H-benzoimidazol-2-yl)-ethylamino]-2-methyl-nicotinonitrile] | 606
10 | OCC(Nc1ncnc2nc[nH]c12)c1nc2ccc(F)cc2n1-c1ccccc1 (stereo not shown) [Example 224, 2-(6-Fluoro-1-phenyl-1H-benzoimidazol-2-yl)-2-(7H-purin-6-ylamino)-ethanol] | 129
11 | CC(Nc1ncnc(N)c1C#N)c1nc2cccnc2n1-c1ccccc1 (stereo not shown) [Example 302, 4-Amino-6-[1-(3-phenyl-3H-imidazo[4,5-b]pyridin-2-yl)-ethylamino]-pyrimidine-5-carbonitrile] | 189
12 | C[C@H](Nc1ncnc(N)c1C#N)c1nc2ccc(F)c(-c3ccccn3)c2n1C [Example 411, 4-amino-6-[[(1S)-1-[6-fluoro-1-methyl-7-(2-pyridyl)benzimidazol-2-yl]ethyl]amino]pyrimidine-5-carbonitrile] | 895
13 | CC[C@H](Nc1ncnc(N)c1C#N)c1nc2ccc(F)cc2n1-c1cncc(F)c1 [Example 350, 4-Amino-6-{(S)-1-[6-fluoro-1-(5-fluoro-pyridin-3-yl)-1H-benzoimidazol-2-yl]-propylamino}-pyrimidine-5-carbonitrile] | 83.9
14 | C[C@H](Nc1ncnc(N)c1C#N)c1nc2ccc(F)c(Br)c2n1-c1cccnc1 [Example 301, 4-Amino-6-[(S)-1-(7-bromo-6-fluoro-1-pyridin-3-yl-1H-benzoimidazol-2-yl)-ethylamino]-pyrimidine-5-carbonitrile] | 34.1
15 | C[C@H](Nc1ncnc2[nH]cnc12)c1nc2ccc(F)cc2n1-c1ccc2c(c1)OCO2 [Example 320, [(S)-1-(l-Benzo[1,3]dioxol-5-yl-6-fluoro-1H-benzoimidazol-2-yl)-ethyl]-(9H-purin-6-yl)-amine] | 253
16 | CC(Nc1ncnc2[nH]cnc12)c1nc2ccc(F)cc2n1-c1ccc(F)cn1 (stereo not shown) [Example 208, {1-[6-Fluoro-1-(5-fluoro-pyridin-2-yl)-1H-benzoimidazol-2-yl]-ethyl}-(9H-purin-6-yl)-amine] | 206
17 | C[C@H](Nc1ncnn2ccnc12)c1nc2ccc(F)cc2n1-c1ccccc1 [Example 321, [(S)-1-(6-Fluoro-1-phenyl-1H-benzoimidazol-2-yl)-ethyl]-imidazo[2,1-f][1,2,4]triazin-4-yl-amine] | 18.8
18 | CC(C)n1c([C@H](C)Nc2ncnc3[nH]cnc23)nc2ccc(F)c(-c3ccccn3)c21 [Example 409, N-[(1S)-1-[6-fluoro-1-isopropyl-7-(2-pyridyl)benzimidazol-2-yl]ethyl]-9H-purin-6-amine] | 64.2
19 | COCC(Nc1ncnc2[nH]cnc12)c1nc2ccc(F)c(F)c2n1-c1ccccc1 (stereo not shown) [Example 190, [1-(6,7-Difluoro-1-phenyl-1H-benzoimidazol-2-yl)-2-methoxy-ethyl]-(9H-purin-6-yl)-amine] | 247
20 | CC(Nc1ncnc2[nH]cnc12)c1nc2ccc(F)c(C(=O)N3CCN(C)CC3)c2n1-c1ccccc1 (stereo not shown) [Example 202, {5-Fluoro-3-phenyl-2-[1-(9H-purin-6-ylamino)-ethyl]-3H-benzoimidazol-4-yl}-(4-methyl-piperazin-1-yl)-methanone] | 14.1
21 | C[C@H](Nc1ncnc(N)c1C#N)c1nc2ccc(F)cc2n1-c1ccncc1 [Example 354, 4-Amino-6-[(S)-1-(6-fluoro-1-pyridin-4-yl-1H-benzoimidazol-2-yl)-ethylamino]-pyrimidine-5-carbonitrile] | 48.4
22 | OCC[C@H](Nc1ncnc2[nH]cnc12)c1nc2ccc(F)cc2n1-c1ccccc1 [Example 187, (S)-3-(6-Fluoro-1-phenyl-1H-benzoimidazol-2-yl)-3-(9H-purin-6-ylamino)-propan-1-ol] | 119
23 | CC(Nc1ncnc2[nH]cnc12)c1nc2ccc(F)c(C#N)c2n1-c1ccccc1 (stereo not shown) [Example 217, 5-Fluoro-3-phenyl-2-[1-(9H-purin-6-ylamino)-ethyl]-3H-benzoimidazole-4-carbonitrile] | 43.3
24 | C[C@H](Nc1ncnc2[nH]cnc12)c1nc2ccc(F)cc2n1-c1ccncn1 [Example 332, [(S)-1-(6-Fluoro-1-pyrimidin-4-yl-1H-benzoimidazol-2-yl)-ethyl]-(9H-purin-6-yl)-amine] | 81.7
25 | C[C@H](Nc1ncnc(N)c1C#N)c1nc2ccc(F)cc2n1-c1ccn(C)n1 [Example 402, 4-amino-6-[[(1S)-1-[6-fluoro-1-(1-methylpyrazol-3-yl)benzimidazol-2-yl]ethyl]amino]pyrimidine-5-carbonitrile] | 64.7
26 | CC(C)n1c([C@H](C)Nc2ncnc(N)c2C#N)nc2ccc(F)c(-c3ccccn3)c21 [Example 408, 4-amino-6-[[(1S)-1-[6-fluoro-1-isopropyl-7-(2-pyridyl)benzimidazol-2-yl]ethyl]amino]pyrimidine-5-carbonitrile] | 163
27 | C[C@H](Nc1ncnc2[nH]cnc12)c1nc2ccc(F)cc2n1-c1cncc(F)c1 [Example 260, {(S)-1-[6-Fluoro-1-(5-fluoro-pyridin-3-yl)-1H-benzoimidazol-2-yl]-ethyl}-(9H-purin-6-yl)-amine] | 25.7
28 | C[C@H](Nc1ncnc2[nH]cnc12)c1nc2ccc(F)cc2n1C1CCCCC1 [Example 201, [(S)-1-(1-Cyclohexyl-6-fluoro-1H-benzoimidazol-2-yl)-ethyl]-(9H-purin-6-yl)-amine] | 118

From patent US8653089B2, “Heterocyclic compounds and methods of use” (F. Hoffmann-La Roche AG, priority 2011, dated 2014)
